Our source for the IC50 values is ChEMBL document CHEMBL4257223, “Histone demethylase inhibitors” (2016).

SMILES strings stand for the structures.

What is called IC50 is the concentration that inhibits the measured activity by half.

For experiment [1], the target named is T1, Lysine-specific demethylase 2B (Homo sapiens, UniProt Q8NHM5).
T1 sequence (Q8NHM5 whole entry): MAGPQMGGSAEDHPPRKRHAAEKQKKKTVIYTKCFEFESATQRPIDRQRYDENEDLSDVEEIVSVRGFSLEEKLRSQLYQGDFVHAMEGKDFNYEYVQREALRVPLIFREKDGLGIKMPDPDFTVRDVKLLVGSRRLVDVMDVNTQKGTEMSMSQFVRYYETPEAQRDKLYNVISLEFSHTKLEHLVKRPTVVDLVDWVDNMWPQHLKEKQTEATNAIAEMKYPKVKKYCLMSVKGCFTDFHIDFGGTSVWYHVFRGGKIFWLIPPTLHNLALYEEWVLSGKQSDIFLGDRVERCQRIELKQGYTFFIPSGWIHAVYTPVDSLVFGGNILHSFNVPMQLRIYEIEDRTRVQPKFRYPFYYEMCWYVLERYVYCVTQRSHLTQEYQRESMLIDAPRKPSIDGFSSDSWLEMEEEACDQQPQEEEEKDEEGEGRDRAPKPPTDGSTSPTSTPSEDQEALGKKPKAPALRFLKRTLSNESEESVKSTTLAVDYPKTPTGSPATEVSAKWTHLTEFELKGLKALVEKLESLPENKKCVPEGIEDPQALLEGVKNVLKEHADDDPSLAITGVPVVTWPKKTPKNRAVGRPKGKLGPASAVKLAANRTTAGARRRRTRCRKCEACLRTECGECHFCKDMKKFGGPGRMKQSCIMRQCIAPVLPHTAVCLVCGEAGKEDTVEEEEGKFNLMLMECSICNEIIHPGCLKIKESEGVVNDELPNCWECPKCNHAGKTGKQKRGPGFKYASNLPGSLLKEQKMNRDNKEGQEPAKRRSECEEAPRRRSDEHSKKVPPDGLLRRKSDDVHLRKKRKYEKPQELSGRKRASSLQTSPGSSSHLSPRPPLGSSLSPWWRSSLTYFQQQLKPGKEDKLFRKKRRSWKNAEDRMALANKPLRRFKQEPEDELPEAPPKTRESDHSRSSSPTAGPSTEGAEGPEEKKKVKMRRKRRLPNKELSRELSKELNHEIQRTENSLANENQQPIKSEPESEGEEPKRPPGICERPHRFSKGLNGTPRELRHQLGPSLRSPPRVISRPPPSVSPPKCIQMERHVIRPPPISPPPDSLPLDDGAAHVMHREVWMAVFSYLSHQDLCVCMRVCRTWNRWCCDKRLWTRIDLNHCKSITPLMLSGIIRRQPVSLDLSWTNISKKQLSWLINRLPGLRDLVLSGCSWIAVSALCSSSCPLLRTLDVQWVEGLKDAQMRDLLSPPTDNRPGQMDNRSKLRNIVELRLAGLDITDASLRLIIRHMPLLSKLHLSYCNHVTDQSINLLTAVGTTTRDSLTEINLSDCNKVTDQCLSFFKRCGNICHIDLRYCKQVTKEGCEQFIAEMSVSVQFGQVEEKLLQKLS
The experiment is described as follows: Inhibition of recombinant human C-terminal FLAG-tagged FBXL10 (1 to 650 residues) expressed in baculovirus infected sf9 cells using H3K36me2-biotin peptide as substrate after 30 mins in presence of alpha-ketoglutaric acid by AlphaScreen assay.

Experiment [2] deals with Lysine-specific demethylase 5B (Homo sapiens, UniProt Q9UGL1). The experiment is described as follows: Inhibition of recombinant human N-terminal His-FLAG tagged JARID1B (2 to 751 residues) expressed in baculovirus infected sf9 cells using H3K4me3-biotin peptide as substrate after 30 mins in presence of alpha-ketoglutaric acid by LANCE TR-FRET assay. In general terms: Time-resolved FRET reads energy transfer from a long-lived donor to a nearby acceptor.
Chain of Lysine-specific demethylase 5B (Q9UGL1 whole entry, the tested form may be a part): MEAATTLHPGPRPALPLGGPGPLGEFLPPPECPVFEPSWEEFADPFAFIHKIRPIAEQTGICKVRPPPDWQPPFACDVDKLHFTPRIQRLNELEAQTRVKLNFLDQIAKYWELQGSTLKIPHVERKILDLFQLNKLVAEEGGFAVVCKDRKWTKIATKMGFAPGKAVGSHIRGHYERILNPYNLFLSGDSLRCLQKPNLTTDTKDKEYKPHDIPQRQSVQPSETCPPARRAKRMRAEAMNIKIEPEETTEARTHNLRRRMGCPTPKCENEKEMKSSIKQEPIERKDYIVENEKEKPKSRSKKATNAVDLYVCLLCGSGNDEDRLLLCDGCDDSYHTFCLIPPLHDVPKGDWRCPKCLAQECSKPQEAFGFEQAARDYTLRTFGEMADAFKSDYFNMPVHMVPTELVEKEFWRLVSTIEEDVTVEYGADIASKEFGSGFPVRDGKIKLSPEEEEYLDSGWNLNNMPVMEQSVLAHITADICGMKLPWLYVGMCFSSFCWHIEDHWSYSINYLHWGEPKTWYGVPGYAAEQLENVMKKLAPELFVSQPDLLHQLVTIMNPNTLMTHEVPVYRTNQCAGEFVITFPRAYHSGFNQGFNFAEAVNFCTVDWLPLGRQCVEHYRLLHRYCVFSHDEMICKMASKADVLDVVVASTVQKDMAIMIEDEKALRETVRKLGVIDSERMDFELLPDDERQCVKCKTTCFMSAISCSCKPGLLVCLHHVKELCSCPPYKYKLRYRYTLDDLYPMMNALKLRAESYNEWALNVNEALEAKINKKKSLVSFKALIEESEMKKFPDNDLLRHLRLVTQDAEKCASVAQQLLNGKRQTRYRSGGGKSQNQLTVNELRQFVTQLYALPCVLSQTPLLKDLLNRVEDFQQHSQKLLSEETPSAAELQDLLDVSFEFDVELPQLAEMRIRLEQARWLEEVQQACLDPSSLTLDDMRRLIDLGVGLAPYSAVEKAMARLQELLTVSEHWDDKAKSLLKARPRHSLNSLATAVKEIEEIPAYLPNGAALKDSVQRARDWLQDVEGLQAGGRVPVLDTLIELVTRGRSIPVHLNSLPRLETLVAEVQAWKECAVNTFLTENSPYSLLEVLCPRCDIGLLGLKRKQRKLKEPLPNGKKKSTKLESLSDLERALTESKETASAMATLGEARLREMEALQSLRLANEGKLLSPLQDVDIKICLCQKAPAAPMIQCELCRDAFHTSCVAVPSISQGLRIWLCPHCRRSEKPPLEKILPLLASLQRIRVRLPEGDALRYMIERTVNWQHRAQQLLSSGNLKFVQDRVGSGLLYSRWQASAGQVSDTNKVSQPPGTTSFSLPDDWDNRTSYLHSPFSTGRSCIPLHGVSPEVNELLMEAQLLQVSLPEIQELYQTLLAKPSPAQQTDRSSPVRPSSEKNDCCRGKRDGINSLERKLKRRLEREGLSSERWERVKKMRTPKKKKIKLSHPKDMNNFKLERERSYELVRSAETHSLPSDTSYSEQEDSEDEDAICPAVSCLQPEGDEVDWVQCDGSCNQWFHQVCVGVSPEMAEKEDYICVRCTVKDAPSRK

The target of experiment [3] is Lysine-specific demethylase 5A/5B (Homo sapiens, UniProt P29375+Q9UGL1). The experiment is described as follows: Inhibition of KDM5A/KDM5B in human ZR-75-1 cells assessed as increase in H3K4me3 level after 72 hrs by fluorometric immunoblot analysis. It counts as cell-based.
The target in experiment [4] is T2, Lysine-specific demethylase 4C (Homo sapiens, UniProt Q9H3R0).
T2 sequence (Q9H3R0 whole entry): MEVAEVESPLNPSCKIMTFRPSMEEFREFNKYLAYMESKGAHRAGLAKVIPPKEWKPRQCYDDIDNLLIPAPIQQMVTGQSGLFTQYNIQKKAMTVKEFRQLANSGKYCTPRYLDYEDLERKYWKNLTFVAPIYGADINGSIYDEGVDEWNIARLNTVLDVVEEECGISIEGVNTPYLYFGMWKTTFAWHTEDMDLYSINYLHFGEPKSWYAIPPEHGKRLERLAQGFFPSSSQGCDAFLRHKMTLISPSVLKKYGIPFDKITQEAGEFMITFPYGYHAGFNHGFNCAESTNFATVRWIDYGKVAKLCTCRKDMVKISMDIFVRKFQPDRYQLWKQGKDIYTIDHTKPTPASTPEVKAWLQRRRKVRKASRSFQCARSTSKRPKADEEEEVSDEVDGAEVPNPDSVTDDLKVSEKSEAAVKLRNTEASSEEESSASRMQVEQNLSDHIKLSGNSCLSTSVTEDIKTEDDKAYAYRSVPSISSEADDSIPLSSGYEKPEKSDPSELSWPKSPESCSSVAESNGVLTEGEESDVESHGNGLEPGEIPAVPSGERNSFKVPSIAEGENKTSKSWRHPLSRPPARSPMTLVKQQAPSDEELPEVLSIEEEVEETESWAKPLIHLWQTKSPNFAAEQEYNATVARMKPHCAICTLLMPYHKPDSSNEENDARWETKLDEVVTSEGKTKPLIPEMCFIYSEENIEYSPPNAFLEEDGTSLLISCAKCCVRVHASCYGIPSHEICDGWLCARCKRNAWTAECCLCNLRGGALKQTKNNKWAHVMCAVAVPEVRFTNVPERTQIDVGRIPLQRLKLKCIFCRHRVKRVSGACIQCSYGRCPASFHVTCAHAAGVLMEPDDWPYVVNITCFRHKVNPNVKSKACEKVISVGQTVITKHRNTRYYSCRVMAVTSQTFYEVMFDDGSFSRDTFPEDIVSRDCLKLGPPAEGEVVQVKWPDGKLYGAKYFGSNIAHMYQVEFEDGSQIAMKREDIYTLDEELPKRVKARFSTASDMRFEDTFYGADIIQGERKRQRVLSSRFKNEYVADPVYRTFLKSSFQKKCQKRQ
The experiment is described as follows: Inhibition of recombinant human N-terminal GST-tagged JMJD2C (2 to 372 residues) expressed in baculovirus infected sf9 cells using H3K9me3-biotin peptide as substrate after 30 mins in presence of alpha-ketoglutaric acid by LANCE TR-FRET assay.

As to `COc1ccc(-c2c(-c3cc(C(=O)O)ccn3)ncn2C)cc1`, the IC50 was 0.1 to 1 µM in experiment [1], 0.1 to 1 µM in experiment [2], 1 to 10 µM in experiment [3] and 1 to 10 µM in experiment [4].
